Usually IC50 stands for the concentration that gives 50% inhibition. Higher therefore signals a need for much substance.

The target of this experiment is T1, rat FAAH (Rattus norvegicus, UniProt P97612).
T1 sequence (P97612 1-579): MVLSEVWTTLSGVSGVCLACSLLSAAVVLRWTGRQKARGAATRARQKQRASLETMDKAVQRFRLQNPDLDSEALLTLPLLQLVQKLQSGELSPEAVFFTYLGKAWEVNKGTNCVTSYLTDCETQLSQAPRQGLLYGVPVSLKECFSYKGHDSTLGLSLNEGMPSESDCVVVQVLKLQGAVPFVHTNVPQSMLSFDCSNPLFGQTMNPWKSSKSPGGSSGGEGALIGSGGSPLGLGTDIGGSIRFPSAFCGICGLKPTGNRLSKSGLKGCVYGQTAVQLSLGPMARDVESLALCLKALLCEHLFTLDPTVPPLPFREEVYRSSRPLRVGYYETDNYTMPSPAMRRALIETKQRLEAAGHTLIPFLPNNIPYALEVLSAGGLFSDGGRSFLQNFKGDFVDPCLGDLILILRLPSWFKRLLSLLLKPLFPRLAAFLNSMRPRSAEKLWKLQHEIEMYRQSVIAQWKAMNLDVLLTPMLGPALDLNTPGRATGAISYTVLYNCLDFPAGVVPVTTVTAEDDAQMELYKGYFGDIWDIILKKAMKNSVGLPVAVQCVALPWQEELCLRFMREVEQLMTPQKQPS
Kind of experiment: Assay Method 2: FAAH assay, 3H-anandamide hydrolysis in homogenate of SK-N-MC cells transfected with rat FAAH. It is filed as biochemical. As to conditions: average of results, > = solubility limit or highest concentration tested. Put shortly:
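Read-out is scintillation counting of [3H]-ethanolamine passing through activated charcoal, after 1 h at rt with 80 nM final [3H]-AEA. Enzyme source: lysate of G418-selected SK-N-MC clones expressing rat FAAH, homogenized in Tris/EDTA/glycerol/0.02% Triton buffer, pH 9.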

`O=C(Nc1noc2ccccc12)N1CCN(Cc2cccc(Oc3ccc(C(F)(F)F)cc3)c2)CC1` [Example 109, N-1,2-Benzisoxazol-3-yl-4-{3-[4-(trifluoromethyl)phenoxy]benzyl}-piperazine-1-carboxamide] had an IC50 of 4 nM.

The compound `O=C(Nc1noc2cc(F)ccc12)N1CCN(Cc2cccc(Oc3ccc(Cl)cc3)c2)CC1` [Example 245, 4-[3-(4-Chloro-phenoxy)-benzyl]-piperazine-1-carboxylic acid (6-fluoro-benzo[d]isoxazol-3-yl)-amide] displayed an IC50 of 15 nM.

Values taken from patent US20090062294A1, “HETEROARYL-SUBSTITUTED UREA MODULATORS OF FATTY ACID AMIDE HYDROLASE” (priority 2007, published 2009).
